In assay [1] the target is T1, 1,3-beta-glucan synthase (Candida albicans, UniProt O13423). The experiment in a line: Inhibition of glucan synthase in Candida albicans SC5314 in presence of 20% human serum.
In assay [2] the target is T1, 1,3-beta-glucan synthase. The experiment in a line: Inhibition of glucan synthase in Candida albicans ATCC 36082 in presence of 10% human serum.
The target of assay [3] is T1, 1,3-beta-glucan synthase. The experiment in a line: Inhibition of glucan synthase in Candida albicans 36082 assessed as incorporation of [3H]uridine diphosphoglucose.
Assay [4] has as its target T1, 1,3-beta-glucan synthase. The experiment in a line: Inhibition of glucan synthase in Candida albicans ATCC 90028 in presence of 20% human serum.
For assay [5], the target named is T1, 1,3-beta-glucan synthase. The experiment in a line: Inhibition of glucan synthase in Candida albicans SC5314 in presence of 50% human serum.
Assay [6] addresses T1, 1,3-beta-glucan synthase. The experiment in a line: Inhibition of glucan synthase in Candida albicans ATCC 90028 in presence of 50% human serum.
Assay [7] concerns the target T1, 1,3-beta-glucan synthase. The experiment in a line: Inhibition of glucan synthase in Candida albicans ATCC 36082.
In assay [8] the target is T1, 1,3-beta-glucan synthase. The experiment in a line: Inhibition of glucan synthase in Candida albicans SC5314 in presence of 10% human serum.
Assay [9] addresses T1, 1,3-beta-glucan synthase. The experiment in a line: Inhibition of glucan synthase in Candida albicans ATCC 36082 in presence of 20% human serum.
In assay [10] the target is T1, 1,3-beta-glucan synthase. The experiment in a line: Inhibition of glucan synthase in Candida albicans 36082 assessed as incorporation of [3H]uridine diphosphoglucose in presence of 50% serum.
Assay [11] addresses T1, 1,3-beta-glucan synthase. The experiment in a line: Inhibition of glucan synthase in Candida albicans ATCC 36082 in presence of 50% human serum.

Molecules are shown by their SMILES.

T1 sequence (O13423 whole entry): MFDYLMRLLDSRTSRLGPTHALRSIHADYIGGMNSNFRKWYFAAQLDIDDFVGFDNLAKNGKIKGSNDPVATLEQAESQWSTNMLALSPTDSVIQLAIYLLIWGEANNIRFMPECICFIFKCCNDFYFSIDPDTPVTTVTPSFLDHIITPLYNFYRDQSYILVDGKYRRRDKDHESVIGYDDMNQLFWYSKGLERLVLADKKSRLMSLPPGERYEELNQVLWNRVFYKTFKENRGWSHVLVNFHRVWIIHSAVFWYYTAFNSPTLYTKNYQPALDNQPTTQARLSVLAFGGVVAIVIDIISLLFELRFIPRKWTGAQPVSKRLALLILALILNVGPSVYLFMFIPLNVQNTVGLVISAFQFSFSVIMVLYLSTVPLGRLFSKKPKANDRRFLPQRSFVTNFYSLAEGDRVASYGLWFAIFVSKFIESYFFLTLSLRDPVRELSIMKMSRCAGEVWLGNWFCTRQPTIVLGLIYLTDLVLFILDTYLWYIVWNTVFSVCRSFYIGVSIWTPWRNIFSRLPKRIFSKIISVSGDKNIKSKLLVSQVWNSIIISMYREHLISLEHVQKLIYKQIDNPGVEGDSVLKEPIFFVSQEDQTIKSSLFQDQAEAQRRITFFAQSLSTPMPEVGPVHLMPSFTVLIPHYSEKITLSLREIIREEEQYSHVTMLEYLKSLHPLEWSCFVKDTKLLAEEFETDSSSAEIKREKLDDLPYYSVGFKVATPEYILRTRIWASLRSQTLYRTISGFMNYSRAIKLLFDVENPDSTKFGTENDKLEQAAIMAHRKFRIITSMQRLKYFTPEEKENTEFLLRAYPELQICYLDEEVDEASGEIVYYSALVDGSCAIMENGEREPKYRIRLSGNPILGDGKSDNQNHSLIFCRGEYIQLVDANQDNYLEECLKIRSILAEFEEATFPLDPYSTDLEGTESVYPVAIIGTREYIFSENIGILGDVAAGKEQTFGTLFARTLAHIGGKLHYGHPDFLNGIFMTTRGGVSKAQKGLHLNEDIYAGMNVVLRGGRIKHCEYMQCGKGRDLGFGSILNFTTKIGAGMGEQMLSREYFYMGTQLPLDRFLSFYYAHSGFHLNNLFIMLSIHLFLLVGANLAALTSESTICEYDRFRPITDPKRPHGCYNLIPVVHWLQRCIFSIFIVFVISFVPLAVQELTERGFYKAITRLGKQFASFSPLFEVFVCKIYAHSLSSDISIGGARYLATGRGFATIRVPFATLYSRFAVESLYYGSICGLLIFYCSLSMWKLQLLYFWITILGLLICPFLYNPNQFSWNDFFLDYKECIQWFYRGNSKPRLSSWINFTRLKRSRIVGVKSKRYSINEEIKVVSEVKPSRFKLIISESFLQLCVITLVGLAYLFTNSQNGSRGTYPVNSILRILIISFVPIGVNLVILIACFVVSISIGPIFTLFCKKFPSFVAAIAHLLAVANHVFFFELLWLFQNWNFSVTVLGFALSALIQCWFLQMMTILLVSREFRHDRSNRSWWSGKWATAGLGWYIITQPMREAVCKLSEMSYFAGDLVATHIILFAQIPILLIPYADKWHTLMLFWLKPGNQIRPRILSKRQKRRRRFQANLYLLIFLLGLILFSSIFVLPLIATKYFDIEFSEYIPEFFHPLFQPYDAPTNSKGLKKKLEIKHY

In the case of `CCC(C)CC(C)CCCCCCCCC(=O)N[C@H]1C[C@@H](O)[C@@H](NCCN)NC(=O)[C@@H]2[C@@H](O)CCN2C(=O)[C@H]([C@H](O)CCN)NC(=O)[C@H]([C@H](O)[C@@H](O)c2ccc(O)cc2)NC(=O)[C@@H]2C[C@@H](O)CN2C(=O)[C@H]([C@@H](C)O)NC1=O` (stereo partly specified) [CHEBI:474180], the half-maximal inhibitory concentration (IC50) was 37 nM at 1,3-beta-glucan synthase [1]; 2.8 nM at 1,3-beta-glucan synthase [2]; 0.33 nM at 1,3-beta-glucan synthase [3]; 2.1 nM on 1,3-beta-glucan synthase [4]; 81 nM on 1,3-beta-glucan synthase [5]; 6.3 nM at 1,3-beta-glucan synthase [6]. The half-inhibitory concentration (IC50) against 1,3-beta-glucan synthase [7] was 0.9 nM; at 1,3-beta-glucan synthase [8], 27 nM; on 1,3-beta-glucan synthase [9], 5.3 nM; on 1,3-beta-glucan synthase [10] it was 6.2 nM; at 1,3-beta-glucan synthase [11] it was 8.7 nM.

As a reminder, the IC50 is the concentration that inhibits the measured activity by half.

The values above are taken from BindingDB's records for doi:10.1128/aac.01536-06 (Public Health Research Institute, 2007).
